Starred links: 1 amine or outer side, 2 acyl side, 3 side chain; linkers in the order of their positions; H or OH if unused. Positions of bridges follow the written chain, without caps; N, C: chain ends. Non-standard residues stand in square brackets, D forms with d. Residues, ends and D or L forms follow the SMILES beside them. *: point of attachment. NMeF = CN[C@@H](Cc1ccccc1)C(=O)O; NMeGABA = CN(CCCC(=O)[*:2])[*:1]; NMeI = CC[C@H](C)[C@H](NC)C(=O)O; NMeβAla = CN(CCC(=O)[*:2])[*:1]; NMeL = CN[C@@H](CC(C)C)C(=O)O; NMeV = CN[C@H](C(=O)O)C(C)C; NMeA = CN[C@@H](C)C(=O)O; Piperidide = C1CCN(*)CC1; dNMeA = CN[C@H](C)C(=O)O; Sar = CNCC(=O)O; tBu = CC(C)(C)*
Assays:
[1] = Metabolic stability in human hepatic microsome; type: in vitro ADME; settings: microsomes, pH 7.4; human hepatic microsome, NADPH(+); read-out: CL NADPH(+)
[2] = PAMPA (parallel artificial membrane permeability assay); type: in vitro ADME; settings: PAMPA; membrane permeation rate (Pe); 50 mM MOPSO buffer pH 6.5 with 5.0% glycocholic acid, 37° C., 18 hours; read-out: iPAMPA Pe
Summary of the method: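 Artificial membrane was 10% (w/v) egg lecithin plus 0.5% (w/v) cholesterol in dodecane on a PVDF filter. A 10 mM DMSO stock was added at 0.5% (v/v) to donor buffer (50 mM MOPSO, pH 6.5, 5.0% glycocholic acid). After 18 h at 37 °C, LC/MS or LC/UV gave donor and acceptor levels for Pe.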

Structure (SMILES) | microsomal CLint at 1 uM [1] | Papp at 18 hours, 50 µM [2]
CC[C@H](C)[C@H]1C(=O)N[C@@H](CC(C)C)C(=O)N(C)[C@@H](CC(C)C)C(=O)N[C@H](C(=O)N2CCCCC2)CC(=O)N(C)CCCC(=O)N(C)[C@@H](CC(C)C)C(=O)N[C@@H]([C@@H](C)O)C(=O)N(C)[C@@H](C)C(=O)N[C@@H](C)C(=O)N(C)[C@@H](Cc2ccccc2)C(=O)N(C)[C@@H](Cc2ccccc2)C(=O)N1C [DP-249] ([NMeGABA][NMeL]T[NMeA]A[NMeF][NMeF][NMeI]L[NMeL]D-Piperidide; lactam N-11) | 151 µL/min/mg | 34 ×10⁻⁶ cm/s
CC[C@H](C)[C@H]1C(=O)N(C)[C@@H](C(C)C)C(=O)N(C)[C@@H](CC(C)C)C(=O)N[C@@H]([C@@H](C)O)C(=O)N[C@H](C(=O)N2CCCCC2)CC(=O)N(C)CCCC(=O)N[C@@H](Cc2ccccc2)C(=O)N(C)[C@@H](CC(C)C)C(=O)N(C)[C@@H](C)C(=O)N(C)[C@@H](Cc2ccccc2)C(=O)N[C@@H](C)C(=O)N1C [DP-250] ([NMeGABA]F[NMeL][NMeA][NMeF]A[NMeI][NMeV][NMeL]TD-Piperidide; lactam N-11) | 42 µL/min/mg | 29 ×10⁻⁶ cm/s
CC[C@H](C)[C@H]1C(=O)N[C@H](C(=O)N2CCCCC2)CC(=O)N(C)CCCC(=O)N(C)[C@@H](CC(C)C)C(=O)N[C@@H](C)C(=O)N(C)[C@@H](CC(C)C)C(=O)N(C)[C@@H](Cc2ccccc2)C(=O)N(C)[C@@H](CC(C)C)C(=O)N[C@@H]([C@@H](C)O)C(=O)N(C)[C@@H](C)C(=O)N(C)[C@@H](Cc2ccccc2)C(=O)N1C [DP-251] ([NMeGABA][NMeL]A[NMeL][NMeF][NMeL]T[NMeA][NMeF][NMeI]D-Piperidide; lactam N-11) | 45 µL/min/mg | 24 ×10⁻⁶ cm/s
CC[C@H](C)[C@H]1C(=O)N(C)[C@@H](CC(C)C)C(=O)N[C@@H](Cc2ccccc2)C(=O)N[C@@H]([C@@H](C)O)C(=O)N[C@@H](CC(C)C)C(=O)N(C)[C@@H](Cc2ccccc2)C(=O)N(C)[C@@H](C(C)C)C(=O)N[C@H](C(=O)N2CCCCC2)CC(=O)N[C@H](C)C(=O)N[C@@H](C)C(=O)N1C [DP-252] ([dA]A[NMeI][NMeL]FTL[NMeF][NMeV]D-Piperidide; lactam N-10) | 119 µL/min/mg | 47 ×10⁻⁶ cm/s
CC[C@H](C)[C@H]1C(=O)N[C@H](C(=O)N2CCCCC2)CC(=O)N[C@H](C(C)C)C(=O)N[C@@H]([C@@H](C)O)C(=O)N(C)[C@@H](C)C(=O)N(C)[C@@H](C(C)C)C(=O)N[C@@H](Cc2ccccc2)C(=O)N(C)[C@@H](CC(C)C)C(=O)N[C@@H](C)C(=O)N(C)CC(=O)N1C [DP-253] ([dV]T[NMeA][NMeV]F[NMeL]A[Sar][NMeI]D-Piperidide; lactam N-10) | 42 µL/min/mg | 7.5 ×10⁻⁶ cm/s
CC[C@H](C)[C@H]1C(=O)N[C@@H](C)C(=O)N[C@H](C(=O)N2CCCCC2)CC(=O)N[C@H](C(C)C)C(=O)N[C@@H](Cc2ccccc2)C(=O)N(C)[C@@H](C(C)C)C(=O)N(C)[C@@H](C)C(=O)N[C@@H]([C@@H](C)O)C(=O)N(C)CC(=O)N(C)[C@@H](CC(C)C)C(=O)N1C [DP-254] ([dV]F[NMeV][NMeA]T[Sar][NMeL][NMeI]AD-Piperidide; lactam N-10) | 13 µL/min/mg | 3.5 ×10⁻⁶ cm/s
CC[C@H](C)[C@@H]1NC(=O)[C@H](CC(C)C)N(C)C(=O)[C@H](Cc2ccccc2)N(C)C(=O)[C@@H](C(C)C)NC(=O)C[C@@H](C(=O)N2CCCCC2)NC(=O)[C@H](CC(C)C)N(C)C(=O)[C@H](C)N(C)C(=O)[C@H]([C@@H](C)O)NC(=O)[C@H](Cc2ccccc2)N(C)C(=O)[C@H](C)N(C)C1=O [DP-255] ([dV][NMeF][NMeL]I[NMeA][NMeF]T[NMeA][NMeL]D-Piperidide; lactam N-10) | 79 µL/min/mg | 48 ×10⁻⁶ cm/s
CC[C@H](C)[C@H]1C(=O)N(C)[C@@H](CC(C)C)C(=O)N(C)[C@@H](Cc2ccccc2)C(=O)N[C@@H]([C@@H](C)O)C(=O)N(C)[C@@H](Cc2ccccc2)C(=O)N(C)[C@@H](CC(C)C)C(=O)N(C)[C@@H](CC(C)C)C(=O)N[C@H](C(=O)N2CCCCC2)CC(=O)N[C@H](C(C)C)C(=O)N[C@@H](C)C(=O)N1C [DP-256] ([dV]A[NMeI][NMeL][NMeF]T[NMeF][NMeL][NMeL]D-Piperidide; lactam N-10) | 44 µL/min/mg | 19 ×10⁻⁶ cm/s
CC[C@H](C)[C@H]1C(=O)N[C@H](C(=O)N2CCCCC2)CC(=O)N[C@H](C(C)C)C(=O)N(C)[C@@H](CC(C)C)C(=O)N(C)[C@@H](Cc2ccccc2)C(=O)N(C)[C@@H](C)C(=O)N[C@@H]([C@@H](C)O)C(=O)N(C)CC(=O)N(C)[C@@H](CC(C)C)C(=O)N[C@@H](COC(C)(C)C)C(=O)N1C [DP-257] ([dV][NMeL][NMeF][NMeA]T[Sar][NMeL]S(tBu)[NMeI]D-Piperidide; lactam N-10) | 46 µL/min/mg | 33 ×10⁻⁶ cm/s
CC[C@H](C)[C@@H]1NC(=O)[C@H](C)N(C)C(=O)[C@H](C)N(C)C(=O)C[C@@H](C(=O)N2CCCCC2)NC(=O)[C@H](CC(C)C)N(C)C(=O)[C@H](Cc2ccccc2)N(C)C(=O)[C@H](C)N(C)C(=O)[C@H]([C@@H](C)O)NC(=O)[C@H](Cc2ccccc2)N(C)C(=O)[C@H](CC(C)C)N(C)C1=O [DP-258] ([NMeA][NMeA]I[NMeL][NMeF]T[NMeA][NMeF][NMeL]D-Piperidide; lactam N-10) | 188 µL/min/mg | 52 ×10⁻⁶ cm/s
CC[C@H](C)[C@H]1C(=O)N(C)[C@@H](CC(C)C)C(=O)N(C)[C@@H](Cc2ccccc2)C(=O)N[C@@H](CC(C)C)C(=O)N(C)[C@@H](C(C)C)C(=O)N[C@@H](Cc2ccccc2)C(=O)N[C@@H]([C@@H](C)O)C(=O)N[C@H](C(=O)N2CCCCC2)CC(=O)N(C)CCC(=O)N[C@@H](C)C(=O)N1C [DP-259] ([NMeβAla]A[NMeI][NMeL][NMeF]L[NMeV]FTD-Piperidide; lactam N-10) | 91 µL/min/mg | 28 ×10⁻⁶ cm/s
CC(C)C[C@H]1C(=O)N[C@@H]([C@@H](C)O)C(=O)N(C)[C@@H](Cc2ccccc2)C(=O)N(C)[C@@H](CC(C)C)C(=O)NCC(=O)N(C)[C@@H](C(C)C)C(=O)N[C@@H](Cc2ccccc2)C(=O)N[C@H](C(=O)N2CCCCC2)CC(=O)N(C)[C@H](C)C(=O)N[C@@H](COC(C)(C)C)C(=O)N1C [DP-260] ([dNMeA]S(tBu)[NMeL]T[NMeF][NMeL]G[NMeV]FD-Piperidide; lactam N-10) | 259 µL/min/mg | 44 ×10⁻⁶ cm/s
CC[C@H](C)[C@@H]1NC(=O)[C@H](C)N(C)C(=O)CCCN(C)C(=O)C[C@@H](C(=O)N2CCCCC2)NC(=O)[C@H](CC(C)C)N(C)C(=O)[C@H](C)N(C)C(=O)[C@H]([C@@H](C)O)NC(=O)[C@H](Cc2ccccc2)N(C)C(=O)[C@H](Cc2ccccc2)N(C)C(=O)[C@H](CC(C)C)N(C)C1=O [DP-261] ([NMeGABA][NMeA]I[NMeL][NMeF][NMeF]T[NMeA][NMeL]D-Piperidide; lactam N-10) | 84 µL/min/mg | 27 ×10⁻⁶ cm/s
CC[C@H](C)[C@H]1C(=O)N(C)[C@@H](CC(C)C)C(=O)N[C@H](C(=O)N2CCCCC2)CC(=O)N(C)CCCC(=O)N[C@@H]([C@@H](C)O)C(=O)N(C)[C@@H](C)C(=O)N(C)[C@@H](Cc2ccccc2)C(=O)N(C)[C@@H](Cc2ccccc2)C(=O)N(C)[C@@H](CC(C)C)C(=O)NCC(=O)N1C [DP-262] ([NMeGABA]T[NMeA][NMeF][NMeF][NMeL]G[NMeI][NMeL]D-Piperidide; lactam N-10) | 94 µL/min/mg | 38 ×10⁻⁶ cm/s
CC(C)C[C@H]1C(=O)N(C)[C@@H](Cc2ccccc2)C(=O)N(C)[C@@H](CC(C)C)C(=O)N[C@H](C(=O)N2CCCCC2)CC(=O)N[C@H](C)C(=O)N[C@@H](C)C(=O)N[C@@H]([C@@H](C)O)C(=O)N(C)[C@@H](C)C(=O)N[C@@H](Cc2ccccc2)C(=O)N1C [DP-263] ([dA]AT[NMeA]F[NMeL][NMeF][NMeL]D-Piperidide; lactam N-9) | 136 µL/min/mg | 34 ×10⁻⁶ cm/s
CC(C)C[C@@H]1NC(=O)[C@H](CC(C)C)N(C)C(=O)[C@@H](C(C)C)NC(=O)C[C@@H](C(=O)N2CCCCC2)NC(=O)[C@H](CC(C)C)N(C)C(=O)[C@H](Cc2ccccc2)N(C)C(=O)[C@H](C)N(C)C(=O)[C@H]([C@@H](C)O)NC(=O)[C@H](Cc2ccccc2)N(C)C1=O [DP-264] ([dV][NMeL]L[NMeF]T[NMeA][NMeF][NMeL]D-Piperidide; lactam N-9) | 94 µL/min/mg | 37 ×10⁻⁶ cm/s
CC(C)C[C@H]1C(=O)N[C@@H](COC(C)(C)C)C(=O)N[C@H](C(=O)N2CCCCC2)CC(=O)N[C@H](C(C)C)C(=O)N(C)[C@@H](Cc2ccccc2)C(=O)N(C)[C@@H](C)C(=O)N(C)[C@@H](CC(C)C)C(=O)N[C@@H]([C@@H](C)O)C(=O)N(C)[C@@H](C)C(=O)N1C [DP-266] ([dV][NMeF][NMeA][NMeL]T[NMeA][NMeL]S(tBu)D-Piperidide; lactam N-9) | 134 µL/min/mg | 43 ×10⁻⁶ cm/s
CC(C)C[C@H]1C(=O)N[C@@H](COC(C)(C)C)C(=O)N[C@H](C(=O)N2CCCCC2)CC(=O)N(C)[C@@H](C)C(=O)N(C)[C@@H](C)C(=O)N(C)[C@@H](Cc2ccccc2)C(=O)N(C)[C@@H](CC(C)C)C(=O)N[C@@H]([C@@H](C)O)C(=O)N(C)[C@@H](C)C(=O)N1C [DP-267] ([NMeA][NMeA][NMeF][NMeL]T[NMeA][NMeL]S(tBu)D-Piperidide; lactam N-9) | 75 µL/min/mg | 25 ×10⁻⁶ cm/s
